Laboratory results published in paper PMC8228600, “Design, Synthesis, In Vitro and In Vivo Evaluation of Heterobivalent SiFAlin-Modified Peptidic Radioligands Targeting Both Integrin αvβ3 and the MC1 Receptor—Suitable for the Specific Visualization of Melanomas?” (Pharmaceuticals, 2021).

How the values were obtained:
[1] = Stability of radiotracers in human serum (radio-HPLC); format: in vitro ADME; conditions: 37 °C, 120 min, mean ± SD, read-out: Stability: intact radiotracer after 120 min of incubation in human serum
Description: In addition to the investigation of the radiotracers’ lipophilicity, their stability in human serum was evaluated in order to determine possible stability issues of the newly developed agents. For this purpose, the respective ^18F-labeled HBPLs were incubated in human serum at 37 °C for 120 min. The results of these experiments are summarized in Table 1, and the corresponding radio-HPLC chromatograms for [^18F]2 as representative examples for all compounds studied are depicted in Figure 3A (see Supplementary Materials, Figure S91 for the results obtained for the other radioligands). In Figure 3B, the portions of intact radiotracer over the course of the stability experiments are depicted.
The radiotracer solutions were first diluted with 0.9% NaCl solution to give a final EtOH concentration of <10%. Then, 6 × 25 μL radiotracer solution was added to 6 × 100 μL human serum and incubated at 37°C for 120 min. At defined time points (5, 15, 30, 60, 90 and 120 min), 125 μL EtOH was added to one of the mixtures and the precipitation of serum proteins was supported by ice-cooling for 2 min. After centrifugation at 13.4 rpm for 2 min, the supernatant was analyzed by analytical radio-HPLC (0–100% MeCN + 0.1% TFA in 5 min). The experiment was performed for each compound trice by three independent experiments.

[2] = logD(7.4) determination (n-octanol / phosphate buffer distribution); format: physicochemical; conditions: n-octanol / 0.05 M phosphate buffer pH 7.4; mean ± SD
Description: Since high lipophilicity of peptidic radiotracers can lead to a high plasma protein binding, resulting in unspecific organ and high liver uptakes, thus negatively impact tumor visualization, the lipophilicity of the HBPLs was determined to get an approximate estimation of the in vivo biodistribution behavior of the radioligands. Therefore, the logD(7.4) values of the SiFAlin-modified HBPLs [^18F]1–[^18F]6 were determined via their distribution coefficient between n-octanol and phosphate buffer at pH 7.4.
The radiotracer solutions were first diluted with 0.9% NaCl solution to give a final EtOH concentration of <10%. A total of 5 MBq of the respective radiotracer in solution was added to 1.6 mL of a mixture of n-octanol and 0.05 M phosphate buffer (pH = 7.4) (v/v, 1/1), and the solution was vigorously shaken for 5 min. Subsequently, the phases were separated by centrifugation at 13.4 rpm for 2 min, and 100 μL of organic and aqueous phases were collected. The activity of each sample was measured using a gamma counter. The lipophilicity of each compound was determined in triplicate in three independent experiments.

| Compound | remaining at 2 h [1] [%] | logD [2] |
| --- | --- | --- |
| CCCC[C@H](NC(=O)CNC(=O)CNC(=O)CCOCCOCCC(=O)NCCCN(CCCNC(=O)CCOCCOCCC(=O)NCCCC[C@@H]1NC(=O)[C@@H](Cc2ccccc2)NC(=O)[C@H](CC(=O)O)NC(=O)CNC(=O)[C@H](CCCNC(=N)N)NC1=O)CC(=O)N[C@@H](CCCCNC(=O)CCC[N+](C)(C)Cc1ccc([Si](F)(C(C)(C)C)C(C)(C)C)cc1)C(N)=O)C(=O)N[C@H]1CC(=O)NCCCC[C@@H](C(N)=O)NC(=O)[C@H](Cc2c[nH]c3ccccc23)NC(=O)[C@H](CCCNC(=N)N)NC(=O)[C@@H](Cc2ccccc2)NC(=O)[C@H](Cc2c[nH]cn2)NC1=O [[^18F]1] | 87 ± 2.3 | -1.08 ± 0.07 |
| CCCC[C@H](NC(=O)CNC(=O)CNC(=O)CCOCCOCCOCCOCCOCCOCCC(=O)NCCCN(CCCNC(=O)CCOCCOCCOCCOCCOCCOCCC(=O)NCCCC[C@@H]1NC(=O)[C@@H](Cc2ccccc2)NC(=O)[C@H](CC(=O)O)NC(=O)CNC(=O)[C@H](CCCNC(=N)N)NC1=O)CC(=O)N[C@@H](CCCCNC(=O)CCC[N+](C)(C)Cc1ccc([Si](F)(C(C)(C)C)C(C)(C)C)cc1)C(N)=O)C(=O)N[C@H]1CC(=O)NCCCC[C@@H](C(N)=O)NC(=O)[C@H](Cc2c[nH]c3ccccc23)NC(=O)[C@H](CCCNC(=N)N)NC(=O)[C@@H](Cc2ccccc2)NC(=O)[C@H](Cc2c[nH]cn2)NC1=O [[^18F]3] | 81.4 ± 2.9 | -1.15 ± 0.01 |
| CCCC[C@H](NC(=O)CNC(=O)CNC(=O)COCC(=O)NCCCN(CCCNC(=O)COCC(=O)NCCCC[C@@H]1NC(=O)[C@@H](Cc2ccccc2)NC(=O)[C@H](CC(=O)O)NC(=O)CNC(=O)[C@H](CCCNC(=N)N)NC1=O)CC(=O)N[C@@H](CCCCNC(=O)CCC[N+](C)(C)Cc1ccc([Si](F)(C(C)(C)C)C(C)(C)C)cc1)C(N)=O)C(=O)N[C@H]1CC(=O)NCCCC[C@@H](C(N)=O)NC(=O)[C@H](Cc2c[nH]c3ccccc23)NC(=O)[C@H](CCCNC(=N)N)NC(=O)[C@@H](Cc2ccccc2)NC(=O)[C@H](Cc2c[nH]cn2)NC1=O [[^18F]5] | 83.2 ± 2.4 | -1.21 ± 0.01 |
| CCCC[C@H](NC(=O)CNC(=O)CNC(=O)[C@H](CCC(=O)O)NC(=O)CNC(=O)[C@H](CCC(=O)O)NC(=O)CNC(=O)[C@H](CCC(=O)O)NC(=O)C(=O)NCCCN(CCCNC(=O)C(=O)N[C@@H](CCC(=O)O)C(=O)NCC(=O)N[C@@H](CCC(=O)O)C(=O)NCC(=O)N[C@@H](CCC(=O)O)C(=O)NCCCC[C@@H]1NC(=O)[C@@H](Cc2ccccc2)NC(=O)[C@H](CC(=O)O)NC(=O)CNC(=O)[C@H](CCCNC(=N)N)NC1=O)CC(=O)N[C@@H](CCCCNC(=O)CCC[N+](C)(C)Cc1ccc([Si](F)(C(C)(C)C)C(C)(C)C)cc1)C(N)=O)C(=O)N[C@H]1CC(=O)NCCCC[C@@H](C(N)=O)NC(=O)[C@H](Cc2c[nH]c3ccccc23)NC(=O)[C@H](CCCNC(=N)N)NC(=O)[C@@H](Cc2ccccc2)NC(=O)[C@H](Cc2c[nH]cn2)NC1=O [[^18F]6] | 82.7 ± 1.8 | -1.52 ± 0.01 |
